Laboratory results from ChEMBL document CHEMBL4308841, “Synthesis, in vitro antiproliferative activity, and kinase inhibitory effects of pyrazole-containing diarylureas and diarylamides” (Eur J Med Chem, 2018).

The compounds below were run on UACC-257 (assay: Growth inhibition of human UACC257 cells assessed as cell growth at 100 uM incubated for 48 hrs by sulforhodamine B assay relative to control). Settings: UACC-257, 48 h, read-out: Activity.
Format: functional

SMILES	growth at 100 µM
O=C(Nc1cccc(-n2cc(-c3ccncc3)c(-c3cc(O)cc(Cl)c3)n2)c1)c1ccc(N2CCOCC2)c(C(F)(F)F)c1	-27%

The compounds below were run on SR (assay: Growth inhibition of human SR cells assessed as cell growth at 1 uM incubated for 48 hrs by sulforhodamine B assay relative to control). Settings: read-out: Activity.
Format: functional

SMILES	growth at 1 µM
O=C(Nc1cccc(-n2cc(-c3ccncc3)c(-c3cc(O)cc(Cl)c3)n2)c1)c1ccc(N2CCOCC2)c(C(F)(F)F)c1	9%

What follows are compounds tested on OVCAR-4 (assay: Growth inhibition of human OVCAR4 cells assessed as cell growth at 0.01 uM incubated for 48 hrs by sulforhodamine B assay relative to control). Settings: OVCAR-4, 48 h, read-out: Activity.
Format: functional

SMILES	growth at 0.01 µM
O=C(Nc1cccc(-n2cc(-c3ccncc3)c(-c3cc(O)cc(Cl)c3)n2)c1)c1ccc(N2CCOCC2)c(C(F)(F)F)c1	100%

What follows are compounds tested on HOP-62 (assay: Growth inhibition of human HOP62 cells assessed as cell growth at 0.1 uM incubated for 48 hrs by sulforhodamine B assay relative to control). Settings: HOP-62, 48 h, read-out: Activity.
Format: functional

SMILES	growth at 0.1 µM
O=C(Nc1cccc(-n2cc(-c3ccncc3)c(-c3cc(O)cc(Cl)c3)n2)c1)c1ccc(N2CCOCC2)c(C(F)(F)F)c1	112%

The compounds below were run on HOP-62 (assay: Growth inhibition of human HOP62 cells incubated for 48 hrs by sulforhodamine B assay). Settings: HOP-62, 48 h, read-out: GI50.
Format: functional, cell-based

SMILES	GI50
O=C(Nc1cccc(-n2cc(-c3ccncc3)c(-c3cc(O)cc(Cl)c3)n2)c1)c1ccc(N2CCOCC2)c(C(F)(F)F)c1	3.59 µM

Same assay, conditions: HOP-62, 48 h, read-out: LC50 (the source's name)

SMILES	CC50
O=C(Nc1cccc(-n2cc(-c3ccncc3)c(-c3cc(O)cc(Cl)c3)n2)c1)c1ccc(N2CCOCC2)c(C(F)(F)F)c1	> 100 µM

Same assay, conditions: HOP-62, 48 h, read-out: TGI

SMILES	TGI
O=C(Nc1cccc(-n2cc(-c3ccncc3)c(-c3cc(O)cc(Cl)c3)n2)c1)c1ccc(N2CCOCC2)c(C(F)(F)F)c1	58.2 µM

Same assay, conditions: HOP-62, 48 h, read-out: pGI50 (converted)

SMILES	GI50
O=C(Nc1cccc(-n2cc(-c3ccncc3)c(-c3cc(O)cc(Cl)c3)n2)c1)c1ccc(N2CCOCC2)c(C(F)(F)F)c1	3.55 µM

Same assay, conditions: HOP-62, 48 h, read-out: pLC50 (the source's name) (converted)

SMILES	CC50
O=C(Nc1cccc(-n2cc(-c3ccncc3)c(-c3cc(O)cc(Cl)c3)n2)c1)c1ccc(N2CCOCC2)c(C(F)(F)F)c1	> 100 µM

Same assay, conditions: HOP-62, 48 h, read-out: pTGI (converted)

SMILES	TGI
O=C(Nc1cccc(-n2cc(-c3ccncc3)c(-c3cc(O)cc(Cl)c3)n2)c1)c1ccc(N2CCOCC2)c(C(F)(F)F)c1	58.9 µM

Each compound was assayed on T47D (assay: Growth inhibition of human T47D cells incubated for 48 hrs by sulforhodamine B assay). Settings: read-out: GI50.
Format: functional, cell-based

SMILES	GI50
O=C(Nc1cccc(-n2cc(-c3ccncc3)c(-c3cc(O)cc(Cl)c3)n2)c1)c1ccc(N2CCOCC2)c(C(F)(F)F)c1	3.81 µM

Same assay, conditions: read-out: LC50 (the source's name)

SMILES	CC50
O=C(Nc1cccc(-n2cc(-c3ccncc3)c(-c3cc(O)cc(Cl)c3)n2)c1)c1ccc(N2CCOCC2)c(C(F)(F)F)c1	> 100 µM

Same assay, conditions: read-out: TGI

SMILES	TGI
O=C(Nc1cccc(-n2cc(-c3ccncc3)c(-c3cc(O)cc(Cl)c3)n2)c1)c1ccc(N2CCOCC2)c(C(F)(F)F)c1	> 100 µM

Same assay, conditions: read-out: pGI50 (converted)

SMILES	GI50
O=C(Nc1cccc(-n2cc(-c3ccncc3)c(-c3cc(O)cc(Cl)c3)n2)c1)c1ccc(N2CCOCC2)c(C(F)(F)F)c1	3.8 µM

Same assay, conditions: read-out: pLC50 (the source's name) (converted)

SMILES	CC50
O=C(Nc1cccc(-n2cc(-c3ccncc3)c(-c3cc(O)cc(Cl)c3)n2)c1)c1ccc(N2CCOCC2)c(C(F)(F)F)c1	> 100 µM

Same assay, conditions: read-out: pTGI (converted)

SMILES	TGI
O=C(Nc1cccc(-n2cc(-c3ccncc3)c(-c3cc(O)cc(Cl)c3)n2)c1)c1ccc(N2CCOCC2)c(C(F)(F)F)c1	> 100 µM

What follows are compounds tested on ACHN (assay: Growth inhibition of human ACHN cells assessed as cell growth at 1 uM incubated for 48 hrs by sulforhodamine B assay relative to control). Settings: read-out: Activity.
Format: functional

SMILES	growth at 1 µM
O=C(Nc1cccc(-n2cc(-c3ccncc3)c(-c3cc(O)cc(Cl)c3)n2)c1)c1ccc(N2CCOCC2)c(C(F)(F)F)c1	52%

The compounds below were run on TK-10 (assay: Growth inhibition of human TK10 cells assessed as cell growth at 10 uM incubated for 48 hrs by sulforhodamine B assay relative to control). Settings: TK-10, 48 h, read-out: Activity.
Format: functional

SMILES	growth at 10 µM
O=C(Nc1cccc(-n2cc(-c3ccncc3)c(-c3cc(O)cc(Cl)c3)n2)c1)c1ccc(N2CCOCC2)c(C(F)(F)F)c1	70.3%

The compounds below were run on SF-539 (assay: Growth inhibition of human SF539 cells assessed as cell growth at 0.01 uM incubated for 48 hrs by sulforhodamine B assay relative to control). Settings: SF-539, 48 h, read-out: Activity.
Format: functional

SMILES	growth at 0.01 µM
O=C(Nc1cccc(-n2cc(-c3ccncc3)c(-c3cc(O)cc(Cl)c3)n2)c1)c1ccc(N2CCOCC2)c(C(F)(F)F)c1	94%

Each compound was assayed on SNB-19 (assay: Growth inhibition of human SNB19 cells assessed as cell growth at 0.1 uM incubated for 48 hrs by sulforhodamine B assay relative to control). Settings: SNB-19, 48 h, read-out: Activity.
Format: functional

SMILES	growth at 0.1 µM
O=C(Nc1cccc(-n2cc(-c3ccncc3)c(-c3cc(O)cc(Cl)c3)n2)c1)c1ccc(N2CCOCC2)c(C(F)(F)F)c1	105%

These compounds were tested on MDA-MB-468 (assay: Growth inhibition of human MDA-MB-468 cells assessed as cell growth at 1 uM incubated for 48 hrs by sulforhodamine B assay relative to control). Settings: MDA-MB-468, 48 h, read-out: Activity.
Format: functional

SMILES	growth at 1 µM
O=C(Nc1cccc(-n2cc(-c3ccncc3)c(-c3cc(O)cc(Cl)c3)n2)c1)c1ccc(N2CCOCC2)c(C(F)(F)F)c1	75%

These compounds were tested on HCT-116 (assay: Growth inhibition of human HCT116 cells incubated for 48 hrs by sulforhodamine B assay). Settings: HCT-116, 48 h.
Format: functional, cell-based

SMILES	IC50
O=C(Nc1cccc(-n2cc(-c3ccncc3)c(-c3cc(O)cc(Cl)c3)n2)c1)c1ccc(N2CCOCC2)c(C(F)(F)F)c1	1.96 µM

Same assay, conditions: HCT-116, 48 h, read-out: GI50

SMILES	GI50
O=C(Nc1cccc(-n2cc(-c3ccncc3)c(-c3cc(O)cc(Cl)c3)n2)c1)c1ccc(N2CCOCC2)c(C(F)(F)F)c1	1.96 µM

Same assay, conditions: HCT-116, 48 h, read-out: LC50 (the source's name)

SMILES	CC50
O=C(Nc1cccc(-n2cc(-c3ccncc3)c(-c3cc(O)cc(Cl)c3)n2)c1)c1ccc(N2CCOCC2)c(C(F)(F)F)c1	> 100 µM

Same assay, conditions: HCT-116, 48 h, read-out: TGI

SMILES	TGI
O=C(Nc1cccc(-n2cc(-c3ccncc3)c(-c3cc(O)cc(Cl)c3)n2)c1)c1ccc(N2CCOCC2)c(C(F)(F)F)c1	> 100 µM

Same assay, conditions: HCT-116, 48 h, read-out: pGI50 (converted)

SMILES	GI50
O=C(Nc1cccc(-n2cc(-c3ccncc3)c(-c3cc(O)cc(Cl)c3)n2)c1)c1ccc(N2CCOCC2)c(C(F)(F)F)c1	1.95 µM

Same assay, conditions: HCT-116, 48 h, read-out: pLC50 (the source's name) (converted)

SMILES	CC50
O=C(Nc1cccc(-n2cc(-c3ccncc3)c(-c3cc(O)cc(Cl)c3)n2)c1)c1ccc(N2CCOCC2)c(C(F)(F)F)c1	> 100 µM

Same assay, conditions: HCT-116, 48 h, read-out: pTGI (converted)

SMILES	TGI
O=C(Nc1cccc(-n2cc(-c3ccncc3)c(-c3cc(O)cc(Cl)c3)n2)c1)c1ccc(N2CCOCC2)c(C(F)(F)F)c1	> 100 µM
